# Source: patent US9573947B2, “Salt of pyrazoloquinoline derivative, and crystal thereof” (Eisai R&D Management Co., Ltd., priority 2013, dated 2017)
# Legend:
# [1] = system: cerebrospinal fluid cGMP; assay: Effect on rodent cerebrospinal fluid cGMP; assay type: in vivo, Long-Evans (LE) male rats; settings: LE rats, 10 mg/kg, 1 hour post-administration; relative to vehicle group; compound synthesized according to Reference Example 1
# Description: Test compounds were administered to ICR male mice (CHARLES RIVER LABORATORIES JAPAN, INC.), Sprague-Dawley (SD) male rats (CHARLES RIVER LABORATORIES JAPAN, INC.) or Long-Evans (LE) male rats (Institute for Animal Reproduction (general incorporated foundation)), and then cerebrospinal fluid was collected under pentobarbital anesthesia and stored at −20° C. Measurement of cGMP in cerebrospinal fluid was performed according to the acetylation EIA procedure of cGMP EIA kit (GE Healthcare) or the non-acetylation procedure of cGMP EIA kit (Cayman Chemical).
# [2] = system: hippocampal cGMP; assay: Effect on rodent hippocampal cGMP; assay type: in vivo, LE male rats; settings: LE rats, 10 mg/kg, 1 hour post-administration; relative to vehicle group; compound synthesized according to Reference Example 1
# Description: Test compounds were administered to SD male rats (CHARLES RIVER LABORATORIES JAPAN, INC.) or LE male rats (Institute for Animal Reproduction (foundation)). Then a microwave treatment was performed under pentobarbital anesthesia, and the hippocampus were isolated, subjected to measurement of their wet weights, then frozen in liquid nitrogen and stored at −80° C. In the measurement of cGMP in the hippocampus, a 0.5 M perchloric acid/1 mM EDTA solution was added so that the wet weight would constitute 5% (w/v), and the mixture was homogenized. After the homogenization, the homogenate was centrifuged (10000 rpm, 15 min), and the supernatant was collected. The collected supernatant was neutralized with a 2 M potassium hydrogen carbonate solution and centrifuged (13000 rpm, 10 min) The cGMP concentration in the supernatant was measured according to the non-acetylation EIA procedure of cGMP EIA kit (GE Healthcare). The results were calculated using the following formula as an increase (C) in the amount of cGMP in the test compound-administered group (B) relative to the amount of cGMP in the vehicle-administered group (A). cGMP increase(C)=[(B)−(A)]/(A)×100(%) In the case of the compound (I) synthesized according to Reference Example 1, the cGMP increase was 58% at 1 hour post-administration of a dose of 10 mg/kg to LE rats.
# [3] = Dissolution test in fasted state simulated intestinal fluid; assay type: physicochemical; settings: fasted state simulated intestinal fluid pH 6.5, 37° C., 50 rpm, in terms of compound (I)
# Description: Each of compound (I) (50 mg), the compound of Example 1 (30 mg) and the compound of Example 2 (30 mg) was filled into a hydroxypropyl methylcellulose capsule, together with an equal weight of lactose hydrate. A 708-DS from Agilent Technologies was equipped with small stirring paddles and small vessels, and used as a dissolution test apparatus. Each drug-filled capsule was added to 50 ml of fasted state simulated intestinal fluid (a phosphate buffer pH 6.5 containing 0.75 mM lecithin and 3 mM sodium taurocholate) which had been warmed to 37° C. The drug was dissolved by rotating the stirring paddle at a speed of 50 rpm. The dissolved solution was sampled over time and the drug concentrations were measured by HPLC. Such dissolution tests using fasted state simulated intestinal fluid are often used to evaluate the dissolution and absorption characteristics of drugs (e.g., Takano et al., “Oral absorption of poorly water-soluble drugs: computer simulation of fraction absorbed in humans from a miniscale dissolution test”, Pharm Res., vol. 23, pp. 1144-1156, 2006). The results were shown in Table 1 and the graph in FIG. 12.
# [4] = Test on oral absorption characteristics in dogs; assay type: in vivo, beagle dogs; settings: oral capsule, 100 mg in terms of the free form; for AREA UNDER PLASMA CONCENTRATION-TIME CURVE, MEAN: mean of 4 beagle dogs
smiles,measurement,setting,value
"COc1ncc(C)c(-c2ccc3c(c2)[nH]c(=O)c2cnn([C@H]4CCOC4)c23)c1C [compound (I), (S)-7-(2-methoxy-3,5-dimethylpyridin-4-yl)-1-(tetrahydrofuran-3-yl)-1H-pyrazolo[4,3-c]quinolin-4(5H)-one]",cGMP increase in cerebrospinal fluid,[1],274%
same,cGMP increase in hippocampus,[2],58%
same,CONCENTRATION (dissolution),[3]; 6 minutes,100 ng/mL
same,CONCENTRATION (dissolution),[3]; 10 minutes,300 ng/mL
same,CONCENTRATION (dissolution),[3]; 15 minutes,1800 ng/mL
same,CONCENTRATION (dissolution),[3]; 20 minutes,3200 ng/mL
same,CONCENTRATION (dissolution),[3]; 30 minutes,4400 ng/mL
same,CONCENTRATION (dissolution),[3]; 60 minutes,5000 ng/mL
same,CONCENTRATION (dissolution),[3]; 90 minutes,5200 ng/mL
same,CONCENTRATION (dissolution),[3]; 120 minutes,5100 ng/mL
same,CONCENTRATION (dissolution),[3]; 180 minutes,5200 ng/mL
same,CONCENTRATION (dissolution),[3]; 240 minutes,5400 ng/mL
same,PLASMA CONCENTRATION,"[4]; Dog 1, 0.25 hours",BQL
same,PLASMA CONCENTRATION,"[4]; Dog 1, 0.5 hours",5 ng/mL
same,PLASMA CONCENTRATION,"[4]; Dog 1, 1 hour",55 ng/mL
same,PLASMA CONCENTRATION,"[4]; Dog 1, 2 hours",94 ng/mL
same,PLASMA CONCENTRATION,"[4]; Dog 1, 4 hours",64 ng/mL
same,PLASMA CONCENTRATION,"[4]; Dog 1, 6 hours",45 ng/mL
same,PLASMA CONCENTRATION,"[4]; Dog 1, 8 hours",43 ng/mL
same,PLASMA CONCENTRATION,"[4]; Dog 1, 24 hours",234 ng/mL
same,AREA UNDER PLASMA CONCENTRATION-TIME CURVE,[4]; Dog 1,2660 ng·h/mL
same,PLASMA CONCENTRATION,"[4]; Dog 2, 0.25 hours",BQL
same,PLASMA CONCENTRATION,"[4]; Dog 2, 0.5 hours",29 ng/mL
same,PLASMA CONCENTRATION,"[4]; Dog 2, 1 hour",67 ng/mL
same,PLASMA CONCENTRATION,"[4]; Dog 2, 2 hours",61 ng/mL
same,PLASMA CONCENTRATION,"[4]; Dog 2, 4 hours",51 ng/mL
same,PLASMA CONCENTRATION,"[4]; Dog 2, 6 hours",45 ng/mL
same,PLASMA CONCENTRATION,"[4]; Dog 2, 8 hours",41 ng/mL
same,PLASMA CONCENTRATION,"[4]; Dog 2, 24 hours",7 ng/mL
same,AREA UNDER PLASMA CONCENTRATION-TIME CURVE,[4]; Dog 2,770 ng·h/mL
same,PLASMA CONCENTRATION,"[4]; Dog 3, 0.25 hours",BQL
same,PLASMA CONCENTRATION,"[4]; Dog 3, 0.5 hours",34 ng/mL
same,PLASMA CONCENTRATION,"[4]; Dog 3, 1 hour",142 ng/mL
same,PLASMA CONCENTRATION,"[4]; Dog 3, 2 hours",133 ng/mL
same,PLASMA CONCENTRATION,"[4]; Dog 3, 4 hours",104 ng/mL
same,PLASMA CONCENTRATION,"[4]; Dog 3, 6 hours",77 ng/mL
same,PLASMA CONCENTRATION,"[4]; Dog 3, 24 hours",9 ng/mL
same,AREA UNDER PLASMA CONCENTRATION-TIME CURVE,[4]; Dog 3,1430 ng·h/mL
same,PLASMA CONCENTRATION,"[4]; Dog 4, 0.25 hours",BQL
same,PLASMA CONCENTRATION,"[4]; Dog 4, 0.5 hours",BQL
same,PLASMA CONCENTRATION,"[4]; Dog 4, 1 hour",17 ng/mL
same,PLASMA CONCENTRATION,"[4]; Dog 4, 24 hours",28 ng/mL
same,AREA UNDER PLASMA CONCENTRATION-TIME CURVE,[4]; Dog 4,2680 ng·h/mL
same,concentration at 8 h,"[4]; beagle, dog, plasma, po, 100 mg, Dog 3, 8 hours",74 ng/mL
same,concentration at 2 h,"[4]; beagle, dog, plasma, po, 100 mg, Dog 4, 2 hours",227 ng/mL
same,concentration at 4 h,"[4]; beagle, dog, plasma, po, 100 mg, Dog 4, 4 hours",208 ng/mL
same,concentration at 6 h,"[4]; beagle, dog, plasma, po, 100 mg, Dog 4, 6 hours",164 ng/mL
same,concentration at 8 h,"[4]; beagle, dog, plasma, po, 100 mg, Dog 4, 8 hours",151 ng/mL
same,concentration at 24 h,"[4]; beagle, dog, plasma, po, 100 mg, mean of dogs, 24 hours",69 ng/mL
same,"AREA UNDER PLASMA CONCENTRATION-TIME CURVE, MEAN",[4],1880 ± 950 ng·h/mL
same,"AREA UNDER PLASMA CONCENTRATION-TIME CURVE, MEAN",[4]; listed as COMPOUND (I),1880 ng·h/mL
same,PLASMA CONCENTRATION MEAN,"[4]; mean of dogs, 0.5 hours",23 ng/mL
same,PLASMA CONCENTRATION MEAN,"[4]; mean of dogs, 1 hour",70 ng/mL
same,PLASMA CONCENTRATION MEAN,"[4]; mean of dogs, 2 hours",129 ng/mL
same,PLASMA CONCENTRATION MEAN,"[4]; mean of dogs, 4 hours",106 ng/mL
same,PLASMA CONCENTRATION MEAN,"[4]; mean of dogs, 6 hours",83 ng/mL
same,PLASMA CONCENTRATION MEAN,"[4]; mean of dogs, 8 hours",77 ng/mL
